Measurements published in patent publication US20020058275A1, “Compositions, kits, and methods for effecting adenine nucleotide modulation of DNA mismatch recognition proteins” (Thomas Jefferson University, priority 1997, published 2002).
Each block holds one molecule with its values, some of them ahead of it.

How the values were obtained:
hMSH2:hMSH6 heterodimer [1] = molecular target: T1, hMSH2:hMSH6 heterodimer (Homo sapiens, UniProt P43246+P52701); assay: Gel mobility shift assay of adenine nucleotide effects on mismatch binding and release; type: biochemical; conditions: for effect on G/T mismatch binding / release of the heterodimer from G/T-mismatched DNA substrate: nucleotide added to the mismatch binding reaction mixture, FIG. 3 at 25 and 250 micromolar; for IC50: G/T-mismatched DNA substrate, read-out: IC50 (concentration required to cause release of 50% of a population of heterodimers from a G/T-mismatched DNA substrate); for S-shifted material re-associated with the DNA as NS-shifted heterodimer: increasing amounts of nucleotide added
T1 construct: made in house; host or cells: SF9 insect cells, baculovirus (pFastBac dual)
T1 sequence (P43246 whole entry): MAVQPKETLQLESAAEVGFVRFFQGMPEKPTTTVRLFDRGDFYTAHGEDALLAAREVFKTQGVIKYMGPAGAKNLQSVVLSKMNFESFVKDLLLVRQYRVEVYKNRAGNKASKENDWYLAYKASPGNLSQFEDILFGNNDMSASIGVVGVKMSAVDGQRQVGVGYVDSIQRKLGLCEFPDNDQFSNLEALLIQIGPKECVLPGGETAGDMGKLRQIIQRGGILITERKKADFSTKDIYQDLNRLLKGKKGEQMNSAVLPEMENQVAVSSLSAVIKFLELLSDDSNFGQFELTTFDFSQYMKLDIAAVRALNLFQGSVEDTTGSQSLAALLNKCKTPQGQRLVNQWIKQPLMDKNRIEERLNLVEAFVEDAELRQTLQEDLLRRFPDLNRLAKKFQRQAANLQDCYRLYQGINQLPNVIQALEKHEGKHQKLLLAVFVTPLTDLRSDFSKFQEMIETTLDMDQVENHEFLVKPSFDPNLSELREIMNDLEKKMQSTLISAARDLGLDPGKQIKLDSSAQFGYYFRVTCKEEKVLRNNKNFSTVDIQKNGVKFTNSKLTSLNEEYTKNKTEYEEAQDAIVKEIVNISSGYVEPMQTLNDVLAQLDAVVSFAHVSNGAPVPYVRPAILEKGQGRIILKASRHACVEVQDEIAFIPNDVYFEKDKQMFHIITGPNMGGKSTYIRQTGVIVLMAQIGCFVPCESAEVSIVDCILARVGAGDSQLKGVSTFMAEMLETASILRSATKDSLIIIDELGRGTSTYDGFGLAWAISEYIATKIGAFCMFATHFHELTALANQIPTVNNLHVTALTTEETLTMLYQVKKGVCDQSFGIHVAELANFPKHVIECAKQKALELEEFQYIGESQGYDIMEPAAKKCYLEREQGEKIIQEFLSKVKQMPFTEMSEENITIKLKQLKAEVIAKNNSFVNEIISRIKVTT
T1 sequence (P52701 whole entry): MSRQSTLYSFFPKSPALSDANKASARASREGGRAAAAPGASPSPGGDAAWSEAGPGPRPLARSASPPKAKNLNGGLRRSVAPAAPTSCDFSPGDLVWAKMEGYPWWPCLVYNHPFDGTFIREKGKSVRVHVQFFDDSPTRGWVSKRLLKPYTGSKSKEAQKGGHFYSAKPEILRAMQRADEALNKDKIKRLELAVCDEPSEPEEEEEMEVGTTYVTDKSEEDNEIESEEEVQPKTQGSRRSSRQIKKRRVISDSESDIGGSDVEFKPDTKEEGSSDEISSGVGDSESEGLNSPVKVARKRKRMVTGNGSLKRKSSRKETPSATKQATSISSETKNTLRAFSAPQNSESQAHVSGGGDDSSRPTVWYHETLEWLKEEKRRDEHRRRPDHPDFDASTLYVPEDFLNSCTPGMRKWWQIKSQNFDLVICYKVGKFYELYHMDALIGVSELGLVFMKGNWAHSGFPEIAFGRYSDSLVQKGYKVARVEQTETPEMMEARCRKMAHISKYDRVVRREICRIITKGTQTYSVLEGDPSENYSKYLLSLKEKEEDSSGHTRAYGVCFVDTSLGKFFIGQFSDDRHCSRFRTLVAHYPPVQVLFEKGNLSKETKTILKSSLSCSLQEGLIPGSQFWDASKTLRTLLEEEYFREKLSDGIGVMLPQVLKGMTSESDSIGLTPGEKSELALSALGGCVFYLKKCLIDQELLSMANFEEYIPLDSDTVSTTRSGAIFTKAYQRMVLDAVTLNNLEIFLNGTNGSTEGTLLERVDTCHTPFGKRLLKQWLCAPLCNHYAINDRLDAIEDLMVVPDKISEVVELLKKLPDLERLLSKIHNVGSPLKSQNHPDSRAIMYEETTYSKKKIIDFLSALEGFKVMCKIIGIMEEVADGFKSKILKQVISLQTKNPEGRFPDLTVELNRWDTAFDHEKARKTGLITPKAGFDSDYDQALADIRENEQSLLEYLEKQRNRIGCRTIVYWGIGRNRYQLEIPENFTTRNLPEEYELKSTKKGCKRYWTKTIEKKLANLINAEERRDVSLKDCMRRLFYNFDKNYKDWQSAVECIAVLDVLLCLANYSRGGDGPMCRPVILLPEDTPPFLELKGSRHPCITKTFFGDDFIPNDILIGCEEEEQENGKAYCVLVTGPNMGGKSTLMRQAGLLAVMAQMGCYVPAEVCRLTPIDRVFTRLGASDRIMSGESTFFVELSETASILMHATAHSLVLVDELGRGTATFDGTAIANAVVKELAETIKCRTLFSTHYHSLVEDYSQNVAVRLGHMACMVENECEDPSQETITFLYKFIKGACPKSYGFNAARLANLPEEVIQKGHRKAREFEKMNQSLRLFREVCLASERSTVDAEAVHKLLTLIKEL

[2] = tested on: G/T-mismatched 81-base pair DNA substrate; assay: Gel mobility shift and DNase footprint assays of heterodimer binding to mismatched DNA
Protocol: (§1) Gel mobility shift assays were performed by incubating a hMSH2:hMSH6 heterodimer and 9 femtomoles of either the ^32P-labeled homologous 81-base pair DNA substrate or the ^32P-labeled G/T-mismatched 81-base pair DNA substrate in a buffer comprising 50 millimolar NaCl, 25 millimolar HEPES buffer which had been adjusted to pH 7.5 using NaOH, 1 millimolar DTT, 0.01 millimolar EDTA, and 15% (v/v) glycerol. The buffer included 10 nanograms per microliter of poly dI-dC (Pharmacia LKB Biotechnology Inc., Piscataway, N.J.). […] In certain experiments described herein, the incubation mixture further comprised selected concentrations of nucleotides or non-labeled DNA. In other experiments described herein, the incubation mixture further comprised 1 millimolar MgCl2 or 5 millimolar EDTA. […] Each incubation mixture was applied to a gel comprising 4% (w/v) polyacrylamide (29:1 ratio of acrylamide:bis-acrylamide) 4% (v/v) glycerol, 40 millimolar Tris acetate buffer (pH 7.8), and 1 millimolar EDTA. Electrophoresis was performed by applying 200 volts to the gel for two hours. Following electrophoresis, each gel was dried and quantitated using a phosphoimaging device obtained from Molecular Dynamics.
Incubation of the hMSH2:hMSH6 heterodimer with ^32P-labeled DNA substrates was performed as described for gel mobility shift assays, except that 18 femtomoles of 32p-labeled DNA substrate was used in each assay. Following incubation, 80 microliters of a buffer comprising 50 millimolar NaCl, 25 millimolar HEPES buffer which had been adjusted to pH 7.8 using NaOH, 1 millimolar DTT, 10 nanograms per microliter poly dI-dC, 1.25 millimolar CaCl2, 3.1 millimolar MgCl2, 10% (v/v) glycerol, and 33 picograms per microliter DNase (Boehringer Mannheim, Indianapolis, Ind.) was added to each incubation mixture. […]

[3] = tested on: homologous 81-base pair DNA substrate; assay: Gel mobility shift and DNase footprint assays of heterodimer binding to homoduplex DNA; conditions: homoduplex concentrations greater than 400 nanomolar
Protocol: as §1, with “Dynamics. […]” for “Dynamics.”

hMSH2:hMSH6 heterodimer [4] = molecular target: T1, hMSH2:hMSH6 heterodimer; assay: ADP exchange assay (filter binding of [3H]-ADP); conditions: excess non-labeled ATP
Protocol: The ADP-ATP exchange rate was determined in a reaction mixture which comprised Buffer Q, 2.3 micromolar [^3H]-ADP, and 60 nanomolar hMSH2:hMSH6 heterodimer. Buffer Q comprised 25 millimolar HEPES which had been adjusted to pH 7.8 using NaOH, 75 millimolar NaCl, 10 millimolar MgCl2, 1 millimolar DTT, and 15% (v/v) glycerol. This reaction mixture was incubated for ten minutes at room temperature. 240 nanomolar G/T-mismatched 39-base pair DNA substrate was added to the reaction mixture, and the incubation was continued for an additional ten minutes. The final volume of the reaction mixture was 10 microliters. […] Reactions were incubated at 25° C. for a selected time and then halted by diluting the reaction mixture with 4 milliliters of an ice-cold stop buffer comprising 25 millimolar HEPES which had been adjusted to pH 7.8 using NaOH, 100 millimolar NaCl, and 10 millimolar MgCl2.
Each halted reaction mixture was immediately filtered on a HAWP nitrocellulose membrane (Millipore, Bedford, Mass.) and washed thrice with 4 milliliters of the ice-cold stop buffer. […] Radioactivity retained on the filters was quantified using a Beckman scintillation counter. […] The amount of [^3H]-ADP retained on the membrane to which the control reaction mixture was applied was considered to correspond to the amount of radioactivity retained when 100% of the complex had [^3H]-ADP bound thereto.

[5] = molecular target: T2, hMSH2:hMSH6 heterodimer ATPase (Homo sapiens, UniProt P43246+P52701); assay: ATPase assays (steady state and initial velocity); type: biochemical
T2 construct: made in house; host or cells: SF9 insect cells, baculovirus (pFastBac dual)
T2 sequence (P43246 whole entry): as the sequence (P43246 whole entry) above
T2 sequence (P52701 whole entry): as the sequence (P52701 whole entry) above
Protocol: Buffer P comprised 40 millimolar HEPES which had been adjusted to pH 7.8 using NaOH, 75 millimolar NaCl, 10 millimolar MgCl2, 1.75 millimolar DTT, and 0.075 millimolar EDTA, and 15% (v/v) glycerol. Steady state reaction measurements were made using 60 nanomolar hMSH2:hMSH6 heterodimer and either 240 nanomolar homoduplex 39-base pair DNA substrate or 240 nanomolar G/T mismatched 39-base pair DNA substrate. Reaction mixtures were incubated at 37° C. for thirty minutes, and the reaction was stopped by addition of 400 microliters of a solution comprising 10% (w/v) activated charcoal (Sigma Chemical Co., St. Louis, Mo.) and 1 millimolar EDTA. Charcoal was pelleted by centrifuging the mixture at 10,000 rotations per minute for ten minutes. The 32p content of duplicate 100 microliter aliquots of the supernatant was assessed by liquid scintillation.
Aliquots were removed at selected times and electrophoresed as described herein. A control aliquot was removed and prepared for electrophoresis prior to addition of the MgCl2-containing Buffer P to the reaction mixture.
TLC was performed as previously described (Fishel et al., 1988, Proc. Natl. Acad. Sci. USA 85:36-40).

hMSH2:hMSH6 heterodimer [6] = molecular target: T3, hMSH2:hMSH6 heterodimer (Homo sapiens, UniProt P43246;P52701 P43246:1-934,P52701:1-1360); assay: EMSA; no NS product observed with 39-bp homoduplex; conditions: tags: 6xHis at N-terminus of hMSH6; Sf9 baculovirus (pFastBac dual) co-expression; fully complementary homoduplex
T3 sequence (P43246 whole entry, chain 1 of 2): as the sequence (P43246 whole entry) above
T3 sequence (P52701 whole entry, chain 2 of 2): as the sequence (P52701 whole entry) above
Protocol: (§2) The buffer included 10 nanograms per microliter of poly dI-dC (Pharmacia LKB Biotechnology Inc., Piscataway, N.J.). […] In certain experiments described herein, the incubation mixture further comprised selected concentrations of nucleotides or non-labeled DNA. In other experiments described herein, the incubation mixture further comprised 1 millimolar MgCl₂ or 5 millimolar EDTA. […] Each incubation mixture was applied to a gel comprising 4% (w/v) polyacrylamide (29:1 ratio of acrylamide:bis-acrylamide) 4% (v/v) glycerol, 40 millimolar Tris acetate buffer (pH 7.8), and 1 millimolar EDTA. Electrophoresis was performed by applying 200 volts to the gel for two hours. Following electrophoresis, each gel was dried and quantitated using a phosphoimaging device obtained from Molecular Dynamics.
hMSH2:hMSH6 heterodimer [7] = molecular target: T3, hMSH2:hMSH6 heterodimer; assay: footprint; DNase footprint; about 25 nt asymmetrically protected on both strands; no adenine nucleotide; conditions: tags: 6xHis at N-terminus of hMSH6; Sf9 baculovirus (pFastBac dual) co-expression; label: 32P 5' end; single G/T mismatch
Protocol: (§3) The apparent dissociation constant (Kd) was determined in a simple buffer system comprising neither an adenine nucleotide nor magnesium using the homologous 81-base pair DNA substrate and the G/T-mismatched 81-base pair DNA substrate described herein.
hMSH2:hMSH6 heterodimer [8] = molecular target: T3, hMSH2:hMSH6 heterodimer; assay: EMSA; apparent Kd; no adenine nucleotide, no Mg; 50 mM NaCl, HEPES pH 7.5, poly dI-dC, 37 C; conditions: tags: 6xHis at N-terminus of hMSH6; Sf9 baculovirus (pFastBac dual) co-expression; label: 32P 5' end; single G/T mismatch
Protocol: as §2, §3

[9] = 0.2 millimolar ATP, 1 millimolar MgCl2, ADP 0 to 3.2 millimolar
[10] = ATP alone as a substrate (absence of DNA)
[11] = ATP and G/C-mismatched DNA as substrates
[12] = ATP and G/T-mismatched DNA as substrates

Molecule: Nc1ncnc2c1ncn2[C@@H]1O[C@H](COP(=O)(O)OP(=O)(O)NP(=O)(O)O)[C@@H](O)[C@H]1O [AMP-PNP, adenylyl-imidodiphosphate]
effect on G/T mismatch binding / release of the heterodimer from G/T-mismatched DNA substrate (hMSH2:hMSH6 heterodimer [1]): Failure of AMP-PNP and AMP-PCP to stimulate release

Kd ([2]; buffer comprising neither an adenine nucleotide nor magnesium, gel shift and DNase footprint assays, read-out: apparent dissociation constant (Kd) for G/T mismatches): ~20 nM
efficiency of binding to a G/T mismatch relative to hMSH2 alone ([2]; compared with literature values for hMSH2 alone): at least ten
saturability of binding of non-mismatched DNA [3]: not saturable
Molecule: hMSH2:hMSH6 heterodimer: purified human mismatch recognition complex of hMSH2 and six-histidine-tagged hMSH6, overexpressed in SF9 insect cells
half-life of the G/T-mismatched DNA substrate-bound heterodimer ([2]; 400-fold excess of non-labeled homoduplex DNA, no ATP): greater than ten

half-life of the ADP-bound heterodimer (hMSH2:hMSH6 heterodimer [4]; absence of DNA): greater than eight hundred
half-life of the ADP-bound heterodimer (hMSH2:hMSH6 heterodimer [4]; presence of G/T-mismatched DNA substrate): less than two
excess of ADP giving approximately complete reversal of ATP-caused substrate release (hMSH2:hMSH6 heterodimer [1]; [9]): 16 fold
excess of ADP to ATP giving reversal of approximately half of the ATP-caused substrate release (hMSH2:hMSH6 heterodimer [1]; [9]): 2- to 3 fold
effect on G/T mismatch binding / release of the heterodimer from G/T-mismatched DNA substrate (hMSH2:hMSH6 heterodimer [1]): increased binding affinity
Molecule: Nc1ncnc2c1ncn2[C@@H]1O[C@H](COP(=O)(O)OP(=O)(O)O)[C@@H](O)[C@H]1O [ADP]

Molecule: Adenosine-5′-O-3-thiotriphosphate [ATP-gamma-S]
IC50 (hMSH2:hMSH6 heterodimer [1]): 3000 nM
mismatched DNA substrate binding activity recovered after magnesium addition (hMSH2:hMSH6 heterodimer [1]; following incubation at 37° C., time not stated): about 22%
S-shifted material re-associated with the DNA as NS-shifted heterodimer (hMSH2:hMSH6 heterodimer [1]): approximately 15%

Molecule: Nc1ncnc2c1ncn2[C@@H]1O[C@H](COP(=O)(O)OP(=O)(O)CP(=O)(O)O)[C@@H](O)[C@H]1O [AMP-PCP, adenyl-(beta-, gamma-methylene)-diphosphonate]
effect on G/T mismatch binding / release of the heterodimer from G/T-mismatched DNA substrate (hMSH2:hMSH6 heterodimer [1]): Failure of AMP-PNP and AMP-PCP to stimulate release

effect on G/T mismatch binding / release of the heterodimer from G/T-mismatched DNA substrate (hMSH2:hMSH6 heterodimer [1]): caused release
Molecule: Nc1ncnc2c1ncn2[C@H]1C[C@H](O)[C@@H](COP(=O)(O)OP(=O)(O)OP(=O)(O)O)O1 [dATP, 2′-deoxy adenosine triphosphate]

mismatched DNA substrate binding activity recovered after magnesium addition (hMSH2:hMSH6 heterodimer [1]; 15 micromolar nucleotide, ten minutes of incubation at 37° C.): ~70%
IC50 (hMSH2:hMSH6 heterodimer [1]): ~3000 nM
effect on binding of the heterodimer to homoduplex DNA (NS binding) (hMSH2:hMSH6 heterodimer [1]; homoduplex DNA): not affected
S-shifted material re-associated with the DNA as NS-shifted heterodimer (hMSH2:hMSH6 heterodimer [1]): approximately 15%
calculated Kcat for ATP ([5]; 37° C.): > 0.333 s⁻¹
Km [5, 10]: ~10 µM
kcat [5, 10]: about 0.9 minute^1
Km [5, 11]: ~23 µM
kcat [5, 11]: about 7.4 minute-^1
Km [5, 12]: ~46 µM
kcat [5, 12]: about 26 minute-^1
Molecule: Nc1ncnc2c1ncn2[C@@H]1O[C@H](COP(=O)(O)OP(=O)(O)OP(=O)(O)O)[C@@H](O)[C@H]1O [ATP]

B1: homologous 39-bp duplex (dsDNA)
DNA 1: CGGCGAATTCCACCAAGCTTGATCGCTCGAGGTACCAGG
DNA 2: CCTGGTACCTCGAGCGATCAAGCTTGGTGGAATTCGCCG
binding result (hMSH2:hMSH6 heterodimer [6]): no binding

B2: G/T-mismatched 81-bp duplex (dsDNA)
DNA 1: AAAGCTGGAGCTGAAGCTTAGCTTAGGATCATCGAGGATCGAGCTCGGTGCAATTCAGCGGTACCCAATTCGCCCTATAGT
DNA 2: ACTATAGGGCGAATTGGGTACCGCTGAATTGCACCGAGCTTGATCCTCGATGATCCTAAGCTAAGCTTCAGCTCCAGCTTT
modifications: [G41 (strand 1) opposite T41 (strand 2), G/T mismatch]
Kd (hMSH2:hMSH6 heterodimer [7]): 20 nM
Kd (hMSH2:hMSH6 heterodimer [8]): 20 nM
